SMILES strings stand for the structures.

The test deals with T1, EPHB4 (Homo sapiens, UniProt P54760).
T1 construct: host or cells: Sf9 insect cells (baculovirus)
T1 sequence (P54760 16-987): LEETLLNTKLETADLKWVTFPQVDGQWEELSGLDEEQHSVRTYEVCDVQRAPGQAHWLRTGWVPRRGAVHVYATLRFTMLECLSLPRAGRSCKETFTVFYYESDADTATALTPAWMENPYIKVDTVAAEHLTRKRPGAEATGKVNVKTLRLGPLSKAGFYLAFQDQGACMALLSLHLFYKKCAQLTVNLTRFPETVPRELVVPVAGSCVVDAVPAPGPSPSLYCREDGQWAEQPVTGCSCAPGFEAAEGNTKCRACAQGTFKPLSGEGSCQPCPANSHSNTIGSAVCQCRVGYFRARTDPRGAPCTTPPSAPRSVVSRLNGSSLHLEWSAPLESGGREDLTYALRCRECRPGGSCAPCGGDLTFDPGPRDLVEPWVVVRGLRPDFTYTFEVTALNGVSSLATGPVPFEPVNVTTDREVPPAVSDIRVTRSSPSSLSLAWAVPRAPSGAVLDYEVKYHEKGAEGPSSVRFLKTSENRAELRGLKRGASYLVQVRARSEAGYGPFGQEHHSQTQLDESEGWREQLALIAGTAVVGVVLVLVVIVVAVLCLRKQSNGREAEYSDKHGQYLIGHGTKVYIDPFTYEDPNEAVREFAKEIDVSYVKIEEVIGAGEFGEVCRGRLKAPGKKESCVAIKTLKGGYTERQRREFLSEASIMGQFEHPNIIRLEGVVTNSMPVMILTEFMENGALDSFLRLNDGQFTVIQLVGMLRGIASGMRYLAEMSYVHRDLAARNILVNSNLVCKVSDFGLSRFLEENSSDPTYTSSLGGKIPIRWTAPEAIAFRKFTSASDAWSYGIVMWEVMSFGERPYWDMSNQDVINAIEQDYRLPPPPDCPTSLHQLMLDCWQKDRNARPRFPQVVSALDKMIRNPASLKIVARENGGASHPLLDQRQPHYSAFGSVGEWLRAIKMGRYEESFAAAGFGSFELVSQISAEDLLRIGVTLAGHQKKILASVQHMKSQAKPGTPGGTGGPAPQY
Put plainly: Radiometric protein kinase assay, EPHB4. It counts as biochemical. Conditions: 1 μM ATP; read-out: Inhibitory activity (IC50:μM) EPHB4. The text has this: All protein kinases were expressed in Sf9 insect cells as human recombinant GST-fusion proteins or His-tagged proteins by means of the baculovirus expression system. Kinases were purified by affinity chromatography using either GSH-agarose (Sigma) or Ni-NTH-agarose (Qiagen). The purity of each kinase was checked by SDS-PAGE/silver staining and the identity of each kinase was verified by western blot analysis with kinase specific antibodies or by mass spectroscopy.
A radiometric protein kinase assay (^33PanQinase® Activity Assay) was used for measuring the kinase activity of the 24 protein kinases. All kinase assays were performed in 96-well FlashPlates™ from Perkin Elmer (Boston, Mass., USA) in a 50 μl reaction volume. The reaction cocktail was pipetted in 4 steps in the following order: • 20 μl of assay buffer • 5 μl of ATP solution (in H2O) • 5 μl of test compound (in 10% DMSO) • 10 μl of substrate/10 […] of enzyme solution (premixed)
The assay for all enzymes contained 60 mM HEPES-NaOH, pH 7.5, 3 mM MgCl2, 3 mM MnCl2, 3 μM Na-orthovanadate, 1.2 mM DTT, 50 μg/ml PEG20000, 1 μM [γ-^33P]-ATP (approx. 5×10^05 cpm per well).
For the 24 kinase assays, the following amounts of enzyme and substrate were used per well:
The reaction cocktails were incubated at 30° C. for 80 minutes. The reaction was stopped with 50 μl of 2% (v/v) H3PO4, plates were aspirated and washed two times with 200 μl of 0.9% (w/v) NaCl or 200 μl H2O. Incorporation of ^33Pi was determined with a microplate scintillation counter (Microbeta Trilux, Wallac).
The median value of the counts in column 1 (n=8) of each assay plate was defined as “low control”. This value reflects unspecific binding of radioactivity to the plate in the absence of a protein kinase but in the presence of the substrate. The median value of the counts in column 7 of each assay plate (n=8) was taken as the “high control”, i.e. full activity in the absence of any inhibitor. The difference between high and low control was taken as 100% activity.
As part of the data evaluation the low control value from a particular plate was subtracted from the high control value as well as from all 80 “compound values” of the corresponding plate. The residual activity (in %) for each well of a particular plate was calculated by using the following formula: Res. Activity (%)=100×[(cpm of compound−low control)/(high control−low control)]
The residual activities for each concentration and the compound IC50 values were calculated using Quattro Workflow V2.1.0.0 (Quattro Research GmbH, Munich, Germany; www.quattro-research.com). The model used was “Sigmoidal response (variable slope)” with parameters “top” fixed at 100% and “bottom” at 0%.
Consider `COC1CC/C=C/C[C@H](c2ccccc2)OC(=O)c2c(O)cc(O)c(Cl)c2CC(=O)C1` (stereo partly shown) [A-2], for which the IC50 worked out at 16 µM.
As to `O=C1Cc2c(Cl)c(O)cc(O)c2C(=O)O[C@H](c2ccccc2)C/C=C/CCC(Cl)C1` (stereo partly shown) [A-3], the IC50 amounted to 40 µM.
Then `O=C1/C=C/CCC2OC2C[C@H](c2ccccc2)OC(=O)c2c(O)cc(O)c(Cl)c2C1` (stereo partly shown) [A-5], with 49 µM; and `O=C1/C=C/CCC2OC2C[C@@H](Cc2ccccc2)OC(=O)c2c(O)cc(O)cc2C1` (stereo partly shown) [A-6], with 40 µM.
